Legend:
α2β3γ2 GABAA receptor = details: cited from earlier work
α3β3γ2 BzR/GABA(A) = details: Figure 1; LTK cells; read-out: Binding affinity α3; cited from earlier work
[1] = PDSP receptor binding, β1B; details: PDSP primary screen at 10 µM
α6β3γ2 GABAA/BzR = α6β3γ2 GABAA/BzR (Homo sapiens, UniProt P18507+Q16445); experiment: Competition binding to HEK cell membranes, α6β3γ2; parameters: expressed in transfected cells; details: Ki α6
α5β3γ2 GABAA receptor = molecular target: T1, α5β3γ2 GABAA receptor (Homo sapiens, UniProt P18507+P31644); experiment: Oocyte electrophysiology, α5β3γ2; format: cell-based
T1 construct: expressed in transfected cells; host or cells: Xenopus oocytes

5ht2b = molecular target: T2, 5ht2b (Homo sapiens, UniProt P41595); experiment: PDSP receptor binding, 5ht2b; details: PDSP primary screen at 10 µM
T2 construct: purchased NIMH PDSP (Psychoactive Drug Screening Program, Roth lab, Case Western Reserve)

D1 = molecular target: T3, D1 (Homo sapiens, UniProt P21728); experiment: PDSP receptor binding, D1; details: PDSP primary screen at 10 µM
T3 construct: purchased NIMH PDSP (Psychoactive Drug Screening Program, Roth lab, Case Western Reserve)

CB2 = molecular target: T4, CB2 (Homo sapiens, UniProt P34972); experiment: PDSP receptor binding, CB2; details: PDSP primary screen at 10 µM
T4 construct: purchased NIMH PDSP (Psychoactive Drug Screening Program, Roth lab, Case Western Reserve)

α2β3γ2 GABAA/BzR = α2β3γ2 GABAA/BzR (Homo sapiens, UniProt P18507+P47869); experiment: Competition binding to HEK cell membranes, α2β3γ2; parameters: expressed in transfected cells; details: Ki α2
DAT = molecular target: T5, DAT (Homo sapiens, UniProt Q01959); experiment: PDSP receptor binding, DAT; details: PDSP primary screen at 10 µM
T5 construct: purchased NIMH PDSP (Psychoactive Drug Screening Program, Roth lab, Case Western Reserve)

DOR = molecular target: T6, DOR (Homo sapiens, UniProt P41143); experiment: PDSP receptor binding, DOR; details: PDSP primary screen at 10 µM
T6 construct: purchased NIMH PDSP (Psychoactive Drug Screening Program, Roth lab, Case Western Reserve)

α2C = molecular target: T7, α2C (Homo sapiens, UniProt P18825); experiment: PDSP receptor binding, α2C; details: PDSP primary screen at 10 µM
T7 construct: purchased NIMH PDSP (Psychoactive Drug Screening Program, Roth lab, Case Western Reserve)

α2β3γ2 BzR/GABA(A) = details: Figure 1; LTK cells; read-out: Binding affinity α2; cited from earlier work
D2 = molecular target: T8, D2 (Homo sapiens, UniProt P14416); experiment: PDSP receptor binding, D2; details: PDSP primary screen at 10 µM
T8 construct: purchased NIMH PDSP (Psychoactive Drug Screening Program, Roth lab, Case Western Reserve)

MOR = molecular target: T9, MOR (Homo sapiens, UniProt P35372); experiment: PDSP receptor binding, MOR; details: PDSP primary screen at 10 µM
T9 construct: purchased NIMH PDSP (Psychoactive Drug Screening Program, Roth lab, Case Western Reserve)

D3 = molecular target: T10, D3 (Homo sapiens, UniProt P35462); experiment: PDSP receptor binding, D3; details: PDSP primary screen at 10 µM
T10 construct: purchased NIMH PDSP (Psychoactive Drug Screening Program, Roth lab, Case Western Reserve)

M5 = molecular target: T11, M5 (Homo sapiens, UniProt P08912); experiment: PDSP receptor binding, M5; details: PDSP primary screen at 10 µM
T11 construct: purchased NIMH PDSP (Psychoactive Drug Screening Program, Roth lab, Case Western Reserve)

[2] = test system: GABA(A) receptor subtypes; details: up to a concentration of 1 μM; any one of the subtypes tested; cited from earlier work
α1β3γ2 BzR/GABA(A) = details: Figure 1; LTK cells; read-out: Binding affinity α1; cited from earlier work
[3] = test system: Bz BS of GABA(A) receptors; details: Supplement Table 1; cited from earlier work
α4β3γ2 BzR/GABA(A) = details: Figure 1; LTK cells; read-out: Binding affinity α4; cited from earlier work
CB1 = molecular target: T12, CB1 (Homo sapiens, UniProt P21554); experiment: PDSP receptor binding, CB1; details: PDSP primary screen at 10 µM
T12 construct: purchased NIMH PDSP (Psychoactive Drug Screening Program, Roth lab, Case Western Reserve)

5ht2c = molecular target: T13, 5ht2c (Homo sapiens, UniProt P28335); experiment: PDSP receptor binding, 5ht2c; details: PDSP primary screen at 10 µM
T13 construct: purchased NIMH PDSP (Psychoactive Drug Screening Program, Roth lab, Case Western Reserve)

5ht6 = molecular target: T14, 5ht6 (Homo sapiens, UniProt P50406); experiment: PDSP receptor binding, 5ht6; details: PDSP primary screen at 10 µM
T14 construct: purchased NIMH PDSP (Psychoactive Drug Screening Program, Roth lab, Case Western Reserve)

H2 = molecular target: T15, H2 (Homo sapiens, UniProt P25021); experiment: PDSP receptor binding, H2; details: PDSP primary screen at 10 µM
T15 construct: purchased NIMH PDSP (Psychoactive Drug Screening Program, Roth lab, Case Western Reserve)

For `C#Cc1ccc2c(c1)C(=O)N(C)Cc1c(C(=O)OCCCOC(=O)c3ncn4c3CN(C)C(=O)c3cc(C#C)ccc3-4)ncn1-2` [XLi-093 (4), 1,3-Bis(8-acetyleno-5,6-dihydro-5-methyl-6-oxo-4H-imidazo[1,5a][1,4]benzodiazepine-3-carboxy) propyl diester], the “modulation of GABA induced chloride flux, α2β3γ2” value (α2β3γ2 GABAA receptor; at 1 μM) is listed as “did not modulate”, the “influence on benzodiazepine (Valium) stimulation of GABA-induced current, α2β3γ2” value (α2β3γ2 GABAA receptor) is listed as “barely influenced” and the Ki (α3β3γ2 BzR/GABA(A)) is listed as 858 nM. For the same molecule, the β1B binding [1] was “∗ (“∗” indicates “primary missed” (<50% inhibition at 10 µM))”, the Ki (α6β3γ2 GABAA/BzR) was > 2000 nM and the “efficacy type at the α5 subtype” value (α5β3γ2 GABAA receptor) was “antagonist”. The 5ht2b binding (5ht2b) was “∗ (“∗” indicates “primary missed” (<50% inhibition at 10 µM))”, the D1 binding (D1) was “∗ (“∗” indicates “primary missed” (<50% inhibition at 10 µM))” and the CB2 binding (CB2) was “∗ (“∗” indicates “primary missed” (<50% inhibition at 10 µM))”. For the same molecule, the Ki (α2β3γ2 GABAA/BzR) was > 1000 nM, the DAT binding (DAT) was “∗ (“∗” indicates “primary missed” (<50% inhibition at 10 µM))” and the DOR binding (DOR) was “∗ (“∗” indicates “primary missed” (<50% inhibition at 10 µM))”. For the same molecule, the α2C binding (α2C) was “∗ (“∗” indicates “primary missed” (<50% inhibition at 10 µM))”, the Ki (α2β3γ2 BzR/GABA(A)) was > 1000 nM and the D2 binding (D2) was “∗ (“∗” indicates “primary missed” (<50% inhibition at 10 µM))”. The MOR binding (MOR) was “∗ (“∗” indicates “primary missed” (<50% inhibition at 10 µM))”, the D3 binding (D3) was “∗ (“∗” indicates “primary missed” (<50% inhibition at 10 µM))” and the M5 binding (M5) was “∗ (“∗” indicates “primary missed” (<50% inhibition at 10 µM))”. For the same molecule, the “triggering of chloride flux” value [2] was “did not trigger chloride flux”, the Ki (α1β3γ2 BzR/GABA(A)) was > 1000 nM and the modulation [3] was “antagonist”. For the same molecule, the Ki (α4β3γ2 BzR/GABA(A)) was 1550 nM, the CB1 binding (CB1) was “∗ (“∗” indicates “primary missed” (<50% inhibition at 10 µM))” and the 5ht2c binding (5ht2c) was “∗ (“∗” indicates “primary missed” (<50% inhibition at 10 µM))”. For the same molecule, the 5ht6 binding (5ht6) was “∗ (“∗” indicates “primary missed” (<50% inhibition at 10 µM))” and the H2 binding (H2) was “∗ (“∗” indicates “primary missed” (<50% inhibition at 10 µM))”.

From PMC4657098, “A Review of the Updated Pharmacophore for the Alpha 5 GABA(A) Benzodiazepine Receptor Model” (International Journal of Medicinal Chemistry, 2015)
